Key:
[1] = test system: HeLa; experiment: Antimigratory activity against human HeLa cells at 3 nM measured after 24 hrs by scratch wound healing based fluorescence inverted microscopic analysis; assay type: functional
[2] = test system: HeLa; experiment: Antimigratory activity against human HeLa cells at 6 nM measured after 24 hrs by scratch wound healing based fluorescence inverted microscopic analysis; assay type: functional
[3] = test system: HeLa; experiment: Induction of cell cycle arrest in human HeLa cells assessed as < 2N cells at 1.5 nM measured after 24 hrs by propidium iodide staining based flow cytometric analysis analysis ( Rvb = 9.32%); assay type: functional
[4] = test system: HeLa; experiment: Induction of apoptosis in human HeLa cells assessed as viable cells at 6 nM measured after 24 hrs by Annexin V-FITC/7-AAD staining based flow cytometric analysis (reference value: 75.5%); assay type: functional; conditions: read-out: Activity
[5] = test system: HeLa; experiment: Induction of cell cycle arrest in human HeLa cells assessed as accumulation of cells at G2/M phase at 1.5 nM after 24 hrs by propidium iodide staining based flow cytometric analysis (reference value: 17.1%); assay type: functional
[6] = test system: HeLa; experiment: Induction of cell cycle arrest in human HeLa cells assessed as 4N cells at 1.5 nM measured after 24 hrs by propidium iodide staining based flow cytometric analysis analysis ( Rvb = 17.1%); assay type: functional
[7] = Toxicity against BABL/c mouse assessed as morphological changes in spleen at 30 mg/kg, ip administered daily for 21 days followed by addition of 3 mg/kg DDP for every 2 days by H and E staining method; assay type: organism-based; conditions: in vivo, 504 h, time 21 day
[8] = Acute toxicity against ICR mouse assessed as focal necrosis in liver at 1000 mg/kg, ip measured after 14 days by H and E staining method; assay type: organism-based; conditions: in vivo, 336 h, time 14 day
[9] = Acute toxicity in ICR mouse assessed as median lethal dose administered intraperitoneally upto 14 days; conditions: in vivo, route ip, time < 14 day
[10] = test system: HeLa; experiment: Induction of cell cycle arrest in human HeLa cells assessed as < 2N cells at 0.4 uM measured after 24 hrs by propidium iodide staining based flow cytometric analysis analysis ( Rvb = 7.07%); assay type: functional
[11] = Acute toxicity against ICR mouse assessed as inflammatory cell infiltration in liver at 1000 mg/kg, ip measured after 14 days by H and E staining method; assay type: organism-based; conditions: in vivo, 336 h, time 14 day
[12] = test system: HeLa; experiment: Antitumor activity against human HeLa cells xenografted in BABL/c mouse assessed as tumor growth inhibition at 30 mg/kg, ip administered daily for 21 days followed by addition of 3 mg/kg DDP for every 2 days relative to control; assay type: functional; conditions: 504 h, time 21 day, read-out: TGI
[13] = test system: HeLa; experiment: Antitumor activity against human HeLa cells xenografted in BABL/ mouse assessed as tumor growth inhibition at 60 mg/kg, ip administered daily for 21 days relative to control; assay type: functional; conditions: 504 h, time 21 day, read-out: TGI
[14] = Apparent clearance during terminal phase in C57 nude mouse at 30 mg/kg, ip measured at 0.083 to 24 hrs by LC/MS/MS analysis; assay type: ADME, organism-based; conditions: in vivo, time 0.083-24 hrs, read-out: CLz/F (converted)
[15] = target: Tubulin (Sus scrofa, UniProt P02554+P02550); experiment: Inhibition of pig brain tubulin polymerization by spectrophotometeric analysis; design: species or system Sus scrofa domesticus
[16] = Resistant factor, ratio of IC50 for antiproliferative activity against human HeLa/DDP cells to IC50 for human HeLa cells; assay type: functional
[17] = test system: HeLa; experiment: Antimigratory activity against human HeLa cells at 0.1 uM measured after 24 hrs by scratch wound healing based fluorescence inverted microscopic analysis; assay type: functional
[18] = Acute toxicity against ICR mouse assessed as glycogen deposition in liver at 1000 mg/kg, ip measured after 14 days by H and E staining method; assay type: organism-based; conditions: in vivo, 336 h, time 14 day
[19] = Apparent volume of distribution during terminal phase in C57 nude mouse at 30 mg/kg, ip measured at 0.083 to 24 hrs by LC/MS/MS analysis; assay type: ADME, organism-based; conditions: in vivo, time 0.083-24 hrs, read-out: Vz/F
[20] = test system: HeLa; experiment: Induction of apoptosis in human HeLa cells assessed as necrotic cells at 0.2 uM measured after 24 hrs by Annexin V-FITC/7-AAD staining based flow cytometric analysis (reference value: 0.56%); assay type: functional
[21] = test system: HeLa; experiment: Induction of cell cycle arrest in human HeLa cells assessed as >4N cells at 0.2 uM measured after 24 hrs by propidium iodide staining based flow cytometric analysis analysis ( Rvb = 8.84%); assay type: functional
[22] = Nephrotoxicity in BABL/c mouse assessed as increased urea nitrogen level at 30 mg/kg, ip administered daily for 21 days followed by addition of 3 mg/kg DDP for every 2 days relative to vehicle; assay type: toxicity, organism-based; conditions: in vivo, 504 h, time 21 day
[23] = Toxicity against BABL/c mouse assessed as morphological changes in heart at 30 mg/kg, ip administered daily for 21 days followed by addition of 3 mg/kg DDP for every 2 days by H and E staining method; assay type: organism-based; conditions: in vivo, 504 h, time 21 day
[24] = Half life in C57 nude mouse at 30 mg/kg, ip measured at 0.083 to 24 hrs by LC/MS/MS analysis; assay type: ADME, organism-based; conditions: in vivo, time 0.083-24 hrs
[25] = test system: HeLa; experiment: Induction of cell cycle arrest in human HeLa cells assessed as >4N cells at 0.1 uM measured after 24 hrs by propidium iodide staining based flow cytometric analysis analysis ( Rvb = 8.84%); assay type: functional
[26] = test system: HeLa; experiment: Antitumor activity against human HeLa cells xenografted in BABL/c mouse assessed assessed as reduction in tumor volume at 60 mg/kg, ip administered daily for 21 days and measured every 3 day ( Rvb = 2336 mm3); assay type: functional; conditions: time 21 day
[27] = Nephrotoxicity in BABL/c mouse assessed as increased creatinine level at 30 mg/kg, ip administered daily for 21 days followed by addition of 3 mg/kg DDP for every 2 days relative to vehicle; assay type: toxicity, organism-based; conditions: in vivo, 504 h, time 21 day
[28] = Toxicity against BABL/c mouse assessed as morphological changes in kidney at 30 to 60 mg/kg, ip administered daily for 21 days by H and E staining method; assay type: organism-based; conditions: in vivo, 504 h, dose 30-60 mg/kg, time 21 day
[29] = test system: HeLa; experiment: Induction of apoptosis in human HeLa cells assessed as early apoptotic cells at 0.2 uM measured after 24 hrs by Annexin V-FITC/7-AAD staining based flow cytometric analysis (reference value: 20.8%); assay type: functional
[30] = Nephrotoxicity in BABL/c mouse assessed as increased urea nitrogen level at 60 mg/kg, ip administered daily for 21 days relative to vehicle; assay type: toxicity, organism-based; conditions: in vivo, 504 h, time 21 day
[31] = test system: HeLa; experiment: Induction of cell cycle arrest in human HeLa cells assessed as < 2N cells at 0.1 uM measured after 24 hrs by propidium iodide staining based flow cytometric analysis analysis ( Rvb = 7.07%); assay type: functional
[32] = Nephrotoxicity in BABL/c mouse assessed as increased urea nitrogen level at 30 mg/kg, ip administered daily for 21 days relative to vehicle; assay type: toxicity, organism-based; conditions: in vivo, 504 h, time 21 day
[33] = Acute toxicity against ICR mouse assessed as morphological changes in heart at 1000 mg/kg, ip measured after 14 days by H and E staining method; assay type: organism-based; conditions: in vivo, 336 h, time 14 day
[34] = test system: HeLa; experiment: Induction of cell cycle arrest in human HeLa cells assessed as accumulation of cells at G2/M phase at 0.2 uM after 24 hrs by propidium iodide staining based flow cytometric analysis (reference value: 20.3%); assay type: functional

## COc1ccc(/C=C\c2cc(OC)c(OC)c(OC)c2)cc1O [COMBRETASTATIN A4]
[1]
  Activity: 57%
[2]
  Activity: 73%
[3]
  Activity: 4.37%
[4]
  viability at 0.006 µM: 19.2%
[5]
  Activity: 22.5%
[6]
  Activity: 22.5%

## CCOc1ccc(-c2cncnc2-c2cc(OC)c(OC)c(OC)c2)cc1Cl
[7]
  Activity: Non-Toxic
[8]
  Activity: Non-Toxic
[9]
  LD50 at 336 h: 1000 mg/kg
[10]
  Activity: 0.26%
[11]
  Activity: Non-Toxic
[12]
  inhibition in vivo at 30 mg/kg: 73%
[13]
  inhibition in vivo at 60 mg/kg: 58%
[14]
  CL/F: 84.2 mL/min/kg
[15]
  IC50: 4.6 µM
[16]
  Ratio IC50: 79.2
[17]
  Activity: 3%
[18]
  Activity: Non-Toxic
[19]
  Vd/F: 11.3 L/kg
[20]
  Activity: 0.52%
[21]
  Activity: 17.4%
[22]
  Activity: 1.3%
[23]
  Activity: Non-Toxic
[24]
  half-life: 1.56 h
[25]
  Activity: 21.6%
[26]
  Activity: 1083 mm3
[27]
  Activity: 40%
[28]
  Activity: Non-Toxic
[29]
  Activity: 66.4%
[30]
  Activity: 1.3%
[31]
  Activity: 7.04%
[32]
  Activity: 1.3%
[33]
  Activity: Non-Toxic
[34]
  Activity: 47.6%
